According to US7884081B2, “Methods of modulating tubulin deacetylast activity” (The J. David Gladstone Institutes, priority 2002, dated 2011):
No end group written: not given here.

Tests used:
[1] = tested on: acetylated tubulin in HeLa, 293T and HepG2 cells; test: Microtubule destabilizing drug treatment, western blot for acetylated tubulin; format: cell-based; conditions: 10 μg/mL colchicine or 1 μg/mL nocodazole for 6 hours
Text: Lysates were equilibrated by total protein concentration and were separated on 10% SDS-PAGE gels and western blotted as described above.
Cells were harvested and lysates separated by SDS-PAGE and western blotting using specific antisera for acetylated tubulin and tubulin.

recombinant Hst2p = recombinant Hst2p (Saccharomyces cerevisiae, UniProt P53686); test: Tubulin peptide deacetylation kinetics (HPLC); format: biochemical, yeast; conditions: 500 μM NAD, 37° C.
Sequence of recombinant Hst2p (P53686 whole entry): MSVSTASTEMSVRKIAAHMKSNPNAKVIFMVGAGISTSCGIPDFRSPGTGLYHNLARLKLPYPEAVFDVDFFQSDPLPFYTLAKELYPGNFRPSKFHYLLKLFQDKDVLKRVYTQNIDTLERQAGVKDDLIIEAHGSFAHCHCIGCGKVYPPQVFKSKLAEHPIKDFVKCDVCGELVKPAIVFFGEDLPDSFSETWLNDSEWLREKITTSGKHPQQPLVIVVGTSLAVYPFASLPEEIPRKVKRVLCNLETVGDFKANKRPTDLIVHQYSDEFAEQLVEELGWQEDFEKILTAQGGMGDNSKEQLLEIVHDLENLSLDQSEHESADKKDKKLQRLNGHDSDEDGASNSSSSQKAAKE
Procedure: Increasing concentrations of tubulin peptide (20-900 μM), and 800 μM NAD were reacted in the presence of 0.8 to 1 μM recombinant SIRT2 in 50 mM Tris, pH 7.5, 1 mM DTT, and 10% methanol at 37° C. For Hst2p reactions, tubulin peptides and 500 μM NAD were reacted in the presence of 9 to 19 μM recombinant Hst2p under the same conditions. Reactions were quenched with trifluoroacetic acid (TFA) to a final concentration of 1%. Time points were chosen such that initial velocity conditions were observed. Samples were injected into the high performance liquid chromatography (HPLC) with a Beckman C18 analytical column. Upon injection, the system was run isocratically with solvent A (0.05% TFA in H2O), followed by a gradient of 0-10% solvent B (0.02% TFA in CH3CN) for 4 minutes, and followed by a gradient of 10-23% solvent B for 23 minutes. Deacetylated and acetylated peptides eluted at 16% and 18% CH3CN, respectively. Elution of substrates and products were monitored by measuring the absorbance at 214 nm, and corresponding peaks were integrated using the Beckman System Gold Nouveau software. The amount of product was quantified by calculating the percentage of the deacetylated tubulin peptide from the total tubulin peptide based upon their integration values. […]

SIRT2 [2] = target: T1, SIRT2 (Homo sapiens, UniProt Q8IXJ6); test: Tubulin peptide deacetylation kinetics (HPLC); format: biochemical; set-up: 6xHis; factor Xa protease cleavage site; made in house; host or cells: E. coli DH5αFIQ; conditions: SIRT2, 800 μM NAD, 37° C.
T1 sequence (Q8IXJ6 1-389): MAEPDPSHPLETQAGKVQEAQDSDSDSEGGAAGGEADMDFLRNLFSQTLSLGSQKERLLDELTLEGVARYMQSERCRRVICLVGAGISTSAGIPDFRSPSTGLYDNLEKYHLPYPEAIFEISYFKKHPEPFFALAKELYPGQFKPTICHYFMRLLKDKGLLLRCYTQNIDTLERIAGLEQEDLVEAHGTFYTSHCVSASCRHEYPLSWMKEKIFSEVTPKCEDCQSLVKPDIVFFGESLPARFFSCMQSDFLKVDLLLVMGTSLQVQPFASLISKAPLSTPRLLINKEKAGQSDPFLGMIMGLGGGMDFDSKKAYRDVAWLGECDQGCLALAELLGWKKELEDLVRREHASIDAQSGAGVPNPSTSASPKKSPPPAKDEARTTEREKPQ

SIRT2 [3] = target: T1, SIRT2; test: Histone deacetylase assay, immunoprecipitated SIRT2-FLAG on [3H]acetylated histone H4 peptide; format: biochemical
Procedure: HEK 293T cells were transfected by calcium phosphate DNA precipitation method and lysed 48 hours post-transfection in low stringency lysis buffer (50 mM Tris-HCl, pH 7.5, 0.5 mM EDTA, 0.5% NP-40, 150 mM NaCl) in the presence of protease inhibitor cocktail (Complete, Roche Molecular Biochemicals, Indianapolis, Ind.). FLAG tagged proteins were immunoprecipitated with anti-FLAG M2 agarose affinity gel (Sigma, St. Louis, Mo.) and GFP-tagged proteins were immunoprecipitated with anti-GFP monoclonal antibody (Sigma, St. Louis, Mo.) in the presence of Protein G Sepharose (Amersham Pharmacia Biotech, Inc., Piscataway, N.J.) for 2 hours at 4° C. Immunoprecipitated material was washed 3 times in low stringency lysis buffer and one time in SIRT2 deacetylase buffer (50 mM Tris-HCl, pH 9.0, 4 mM MgCl2, and 0.2 mM dithiothreitol (DTT)).
Immunoprecipitated material and recombinant SIRT2 were resuspended in 100 μL of SIRT2 deacetylase buffer containing NAD (Sigma, St. Louis, Mo.) and [^3H] acetylated histone H4 peptide (a.a. 1-23) (Emiliani et al., 1998). TSA (WACO BioProducts, Richmond, Va.) was resuspended in dimethyl sulfoxide (DMSO) was further diluted in DMSO and added to reactions to desired concentration. […] After centrifugation for 5 minutes, 400 μL of the ethyl acetate fraction was mixed with 5 ml scintillation fluid and counted.

SIRT2 [4] = target: T1, SIRT2; test: Ex vivo tubulin deacetylation assay, SIRT2-FLAG with cellular lysate, western blot for acetylated tubulin; format: biochemical; conditions: 1 mM NAD
Procedure: Immunoprecipitations were resuspended in 100 μl SIRT deacetylase buffer containing 50 μg total cellular lysate from untransfected HEK 293T cells and 1 mM NAD. Reactions containing 400 nM TSA or 5 mM nicotinamide (Sigma, St. Louis, Mo.) were pre-incubated at room temperature with all components of the reaction in the absence of NAD for 10 minutes, Following the pre-incubation, the enzymatic reactions were started with the addition of NAD followed by incubation for 2 hours at room temperature with constant agitation. Reactions were stopped by the addition of 50 μl 6× SDS-polyacrylamide gel electrophoresis (PAGE) buffer. Beads were pelleted by centrifugation at 14,000 rpm for 10 minutes and 10 μl of each supernatant was separated on 10% SDS-PAGE gels and western blotted as described above.
In this assay, HEK 293T cells were transfected with SIRT2-FLAG followed by immunoprecipitation of the FLAG-tagged protein (FIG. 3A). The immunoprecipitated material was separated into two fractions. The first fraction was used to measure HDAC activity using the acetylated histone H4 peptide. […] The extent of acetylation/deacetylation of α-tubulin was determined by western blotting analysis using a specific antisera for acetylated α-tubulin. […]

SIRT1 protein = conditions: cited from earlier work
SIRT3 = SIRT3 (Homo sapiens, UniProt Q9NTG7); test: In vitro HDAC activity assay with recombinant protein (ribavirin); format: biochemical
Sequence of SIRT3 (Q9NTG7 whole entry): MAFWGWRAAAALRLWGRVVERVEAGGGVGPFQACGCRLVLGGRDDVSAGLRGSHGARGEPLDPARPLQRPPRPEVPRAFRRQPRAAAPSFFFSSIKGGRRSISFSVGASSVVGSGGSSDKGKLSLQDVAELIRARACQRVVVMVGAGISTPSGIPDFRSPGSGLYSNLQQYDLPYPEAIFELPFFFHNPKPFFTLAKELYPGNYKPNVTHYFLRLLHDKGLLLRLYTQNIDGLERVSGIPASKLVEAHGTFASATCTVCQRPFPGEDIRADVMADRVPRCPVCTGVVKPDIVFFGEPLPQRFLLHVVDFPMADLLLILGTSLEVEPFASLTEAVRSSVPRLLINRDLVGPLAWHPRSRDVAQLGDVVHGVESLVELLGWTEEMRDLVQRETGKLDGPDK
Procedure: (§1) Inhibitory activity of ribavirin against SIRT2 and SIRT3 proteins was tested using recombinant SIRT2 proteins and an in vitro assay. Ribavirin was incubated with recombinant protein only in buffer for 10 minutes; then NAD and substrate were added to start the reaction. Reactions were incubated for 2 hours at room temperature. Reactions were stopped by adding 25 μL stop buffer (0.1M HC1, 0.16M acetic acid) and vortexing briefly. Ethyl acetate extraction isolated any liberated acetyl groups. Ethyl acetate (0.5 ml) was added, mixture was vortexed for 15 seconds and spun at 14,000 rpm for 5 minutes. The upper phase (0.4 ml) was added to 5 mL scintillation fluid (Econofluor-2; Packard) and counted.

SIRT2 [5] = target: T1, SIRT2; test: as above; format: biochemical; set-up: 6xHis; factor Xa protease cleavage site; made in house; host or cells: E. coli DH5αFIQ
Procedure: as §1

[6] = tested on: GFP-MIZ-1 sub-cellular distribution in HeLa cells; test: GFP-MIZ-1 sub-cellular localization by immunofluorescence in transfected HeLa cells; format: cell-based; conditions: for percentage of cells with GFP-MIZ-1 localized in the cytoplasm: TSA treatment
Procedure: HeLa cells grown on coverslips were transfected with LipofectAMINE reagent (Gibco Invitrogen Corp., Carlsbad, Calif.) for 8 hours according to manufacturer's protocol or by calcium phosphate DNA precipitation method. Transfected cells were incubated for 12 hours with 400 nM TSA (WACO BioProducts, Richmond, Va.) 24 hours after transfection. Cells were washed twice for 10 minutes in PBS and fixed for 10 minutes in 4% formaldehyde (EMS, Ft. Washington, Pa.) followed by permeabilization for 10 minutes in 0.5% Triton-X-100 in PBS. Following three washes for 10 minutes in PBS, cells were incubated for 10 minutes in 10% BSA, and incubated for 1 hour with anti-acetylated tubulin 6-11B-1, anti-tubulin B-5-1-2 diluted 1:1000, or anti-FLAG M2 diluted 1:500 in 0.1% TWEEN-20™ non-ionic detergent. Cells were washed three times in 0.1% TWEEN-20™ non-ionic detergent, followed by incubation with goat anti-mouse IgG (Fc specific) TRITC-conjugated antibody (Sigma, St. Louis) diluted 1:100 in 0.1% TWEEN-20™ non-ionic detergent. Following incubation cells were incubated for 5 minutes in 20 mg/ml 4′,6′-diamidino-2-phenylindole hydrochloride (DAPI) washed three times in phosphate-buffered saline (PBS), once in ddH2O, and mounted with Gel Mount (Biomeda Corp., Foster City, Calif.). Slides were visualized on a Nikon E600 microscope system equipped with a SPOT 2 Digital Camera. Confocal images were acquired by laser-scanning confocal microscopy with an Olympus BX60 microscope equipped with a Radiance 2000 confocal setup (BioRad, Hercules, Calif.).
Transfected cells were counted as either GFP-MIZ-1 localized completely nuclear or with partial cytoplasmic retention. Cell counts were derived from inspection of at least 150 transfected cells from six microscopic fields. […] Data set is representative of three independent experiments.

α-tubulin = conditions: treatment of cells with TSA; cited from earlier work

Question: Which “acetylation state of tubulin” value [1] does the source give for `COC(=O)Nc1nc2ccc(C(=O)c3cccs3)cc2[nH]1` [nocodazole] here?
Answer: Its value is “tubulin deacetylation”.

Question: Which V/K (recombinant Hst2p) does the source give for “acetylated tubulin peptide: 9-amino acid synthetic α-tubulin peptide (MPSD(AcK)TIGG), acetylated on lysine-40 (MPSDK(Ac)TIGG)” here?
Answer: Its V/K is 14.9 M⁻¹ s⁻¹.

Question: What about the kcat (recombinant Hst2p) of the same compound?
Answer: The kcat was 0.00254 ± 0.0003 s⁻¹.

Question: And the V/K (SIRT2 [2])?
Answer: The V/K was 894 ± 100 M⁻¹ s⁻¹.

Question: And the kcat (SIRT2 [2])?
Answer: The kcat was 0.144 ± 0.005 s⁻¹.

Question: Which results are given for `NC(=O)c1cccnc1` [nicotinamide]?
Answer: HDAC activity of SIRT2 (SIRT2 [3]; increasing concentrations of nicotinamide, 156 μM to 20 mM): dose dependent decrease; tubulin deacetylation by SIRT2 (SIRT2 [4]; 5 mM nicotinamide): completely inhibited; inhibition of SIRT1 (SIRT1 protein): effective inhibitor

Question: Which “effect on SIRT3 in vitro HDAC activity” value (SIRT3) does the source give for `NC(=O)c1ncn([C@@H]2O[C@H](CO)[C@@H](O)[C@H]2O)n1` [Ribavirin, 1-β-D-ribofuranosyl-1H-1,2,4-triazole-3-carboxamide] here?
Answer: Its value is “no effect”.

Question: And the inhibition at 25 µM (SIRT2 [5])?
Answer: The inhibition at 25 µM was ~50%.

Question: With `CC(/C=C/C(=O)NO)=C\[C@@H](C)C(=O)c1ccc(N(C)C)cc1` [TSA, Trichostatin A] as the compound, how does the “HDAC activity of SIRT2” value (SIRT2 [3]; immunoprecipitated SIRT2-FLAG, 1 mM NAD, increasing concentrations of TSA (100-1600 nM)) read?
Answer: The value was “No change”.

Question: What about the “tubulin deacetylation by SIRT2” value (SIRT2 [4]; 400 nM TSA) of the same compound?
Answer: Its value is “had no effect”.

Question: What about the “localization of GFP-MIZ-1” value ([6]; HeLa cells treated with TSA (400 nM, 12 hours)) of the same compound?
Answer: Its value is “distinct shift in localization of GFP-MIZ-1 from the nucleus to the cytoplasm”.

Question: What about the “percentage of cells with GFP-MIZ-1 localized in the cytoplasm” value (“percentage of cells” for short) ([6]; co-transfected with FLAG empty vector) of the same compound?
Answer: The value was 36.9%.

Question: And the “percentage of cells” value ([6]; co-transfected with SIRT2-FLAG wild-type)?
Answer: The value was 11.2%.

Question: And the “percentage of cells” value ([6]; co-transfected with catalytically inactive SIRT2-FLAG N168A)?
Answer: Its value is 35.3%.

Question: What about the “acetylation of α-tubulin in cells” value (α-tubulin) of the same compound?
Answer: The value was “induces hyperacetylation”.
